From patent publication US20050113413A1, “Naphthalene-1,5-disulfonic acid salts of a substituted 4-amino-1-(pyridylmethyl)piperidine compound” (priority 2003, published 2005)

Test system: rat bladder (volume-induced bladder contractions)
Test: In vivo rat bladder assay (volume-induced bladder contraction amplitude)
Set-up: species or system Sprague-Dawley rats
Conditions: anesthetized female rats, intravenous, normalized to atropine response
Description: Female Sprague-Dawley rats (Harlan, Indianapolis, Ind.) weighing 200 to 300 g were anesthetized with urethane (1.5 g/kg, s.c., Sigma, St. Louis, Mo.), with a supplement of 0.25 g/kg, s.c. urethane as needed. Urethane was administered at a concentration of 0.25 g/mL.
Rats were prepared for surgery by shaving the neck and abdomen and cleansing with ethanol wipes. First, an incision was made on the ventral surface. An intravenous catheter was placed by isolating and ligating the femoral vein. […]
Thereafter, an intravenous dose of the test compound was administered and changes in VIBCAmp were recorded for 15 minutes. Atropine (0.1 mg/kg) was then administered intravenously (1 mL/kg) as a positive control and VIBCAmp and data was recorded for an additional 15 minutes. […]
Alternatively, after the vehicle, increasing cumulative intravenous doses of the test compound were administered at 15 minute intervals (1 mL/kg) and changes in VIBCAmp were recorded for 15 minutes. […]
The average VIBCAmp during the 5-15 minute period after test compound and atropine was determined and subtracted from the average VIBCAmp during the 5-15 minute post-vehicle period to obtain the test compound or atropine-induced change in VIBCAmp. […]

COc1ccncc1CN1CCC(N(CCCCCCCN2CC[C@@H](C(C(N)=O)(c3ccccc3)c3ccccc3)C2)C(C)C)CC1 [Example 6]
ID50 (dose required to produce 50% of the maximal response), VIBCAmp: less than or equal to 0.1 mg/kg
